Reference: patent publication US20170135322A1, “A BIOCONTROL COMBINATION AND METHOD FOR IMPROVING QUALITY OF SHELLED EGGS” (NOBACTRA ISRAEL Ltd., priority 2014, published 2017)
Several values for one entry are separate records, joined by “and”; a condition that tells them apart may be missing. Equal entries are not always repeated.

How the values were obtained:
Assay in all cases: Effect on fungi growth (Example III)
Assay type in all cases: cell-based
[1] = system: Fusarium Spp. (isolate #2); details: additive 10%, without biocontrol formulation, initial diameter 0.5 cm
Text: (§1) The effect of various additives on fungi growth was examined. The fungi examined included two isolates of Fusarium Spp. (isolate #1 and isolate #2), sclerotium, and trychoderma.
(§2) The larger the colony's dimension (diameter) in the petri dish, the lower is the inhibitory effect of the additive. The initial diameter of the colony before treatment was 0.5 cm.

[2] = system: trychoderma; details: additive 10%, without biocontrol formulation; initial diameter 0.5 cm
Text: as §1, §2

[3] = system: sclerotium; details: additive 10%, without biocontrol formulation, initial diameter 0.5 cm
Text: as §1, §2

[4] = system: Fusarium Spp. (isolate #1); details: additive 10%, without biocontrol formulation, initial diameter 0.5 cm
Text: as §1, §2

| SMILES | colony size (diameter) ([1]; hydrate) | colony size (diameter) [2] [cm] | colony size (diameter) ([3]; hydrate) | colony size (diameter) ([4]; hydrate) | colony size (diameter) [1] | colony size (diameter) [3] [cm] | colony size (diameter) [4] |
| --- | --- | --- | --- | --- | --- | --- | --- |
| O.O.O.O.O.O.O.O=S(=O)([O-])[O-].[Mg+2] [Magnesium sulphate hepta hydrate, magnesiumsulphate hepta hydrate] | 3.0 cm and 3.1 cm | 0.5 | 3.0 cm and 2.7 cm and 2.5 cm and 2.2 cm | 3.2 cm and 3.1 cm | – | – | – |
| O=C([O-])O.[K+] [Potassium bicarbonate, potassium becarbonate] | – | 0.5 | – | – | 1.3 cm and 1.2 cm | 0.5 | 1.6 cm and 1.5 cm and 2.0 cm and 1.8 cm |
| O=C([O-])O.[Na+] [Sodium bicarbonate, sodium bicarbonate] | – | 0.5 | – | – | 0.5 cm | 0.5 | 1.0 cm and 1.1 cm |
